“Also recorded” adds a separate entry of the source.
Key:
Arom^hum mice [1] = conditions: 3 weeks old mice; high-dose DHT via injection for 53 days; vs vehicle; p<0.005
Experimental: 3-week-old mice were treated with vehicle (Veh) or DHT for 53 days.

Arom^hum mice [2] = test: Reversal of established scrotal hernias and LAMT fibrosis/atrophy in Arom^hum mice; type: in vivo, mouse; conditions: for time required to reverse large hernias, compared to fulvestrant treatment / reversal of large scrotal hernia: Arom^hum mice with large hernias
Experimental: FIG. 16. […] Arom^hum mice with small to moderate size of hernias were treated with placebo or letrozole for 12 weeks. (A) Schematic diagram depicts the schedule of drug administration. (B) The area of scrotal hernia in Arom^hum mice. (C) Representative photomicrographs of Masson's trichrome-stained LAMT sections of WT and Arom^hum mice. Quantification of the percentage of connective tissue or fibrotic area (D) or myofiber area (E) in WT and Arom^hummice. 10 representative high-power fields were analyzed in each tissue. One-way ANOVA with Tukey's multiple comparison test, **p<0.01, ***p<0.001. Scale bars, […]. n=5 mice per group.
FIG. 17. […] Arom^hum mice with small to moderate size of hernias were treated with placebo or letrozole for 3 weeks. (A) Schematic diagram depicts the schedule of drug administration. (B) The area of scrotal hernia in Arom^hum mice.
FIG. 18. E2/ER antagonist fulvestrant reverses the large size of scrotal hernias and rescues LAMT fibrosis and myocyte atrophy in Arom^hum mice. Arom^hum mice with large size of hernias were treated with placebo or fulvestrant for 12 weeks. (A) Schematic diagram depicts the schedule of drug administration. (B) The area of scrotal hernia in Arom^hum mice. (C) Representative photomicrographs of Masson's trichrome-stained LAMT sections of WT and Arom^hum mice. Quantification of the percentage of connective tissue or fibrotic area (D) in WT and Arom^hum mice. 10 representative high-power fields were analyzed in each tissue. (E) Hydroxyproline content in LAMT of WT and Arom^hum mice treated with fulvestrant. One-way ANOVA with Tukey's multiple comparison test, ***p<0.001, ****p<0.0001. n=5 mice per group.
(§1) FIG. 19. Aromatase inhibitor letrozole reverses the large size of scrotal hernias in Arom^hum mice. Arom^hum mice with large size of hernias were treated with placebo or letrozole for 12 weeks. (A) Schematic diagram depicts the schedule of drug administration. (B) The area of scrotal hernia in Arom^hum mice.
as §1, with “20. E2/ER antagonist raloxifene” for “19. Aromatase inhibitor letrozole”, “raloxifene” for “letrozole”, “3” for “12”
We treated Arom^hum mice with letrozole for 12 weeks. […] Raloxifene is a selective estrogen receptor modulator (SERM) and is currently used to prevent and treat osteoporosis in postmenopausal women.
We treated Arom^hum mice with fulvestrant for 12 weeks when the hernia area was over 200 mm^2. Large hernias were completely disappeared after 3- to 4-week of fulvestrant administration. […] We measured the total amount of collagen (largely type I and III), a major component of ECM, through measuring the content of hydroxyproline(1).

[3] = system: LAMT Arom^Hum fibroblasts; test: R1881 treatment of primary fibroblasts, western blot (AR, PCNA); type: cell-based, mouse; conditions: for increase in PCNA levels (densitometry normalized to GAPDH): preliminary data
Experimental: (§2) Primary fibroblasts were isolated from LAMT from WT and Arom^Hum mice (n=5/genotype). Cells were treated for 24 hours with increasing doses (0.001, 0.01, 0.1, 1, 5, 10, and 100 nM) of R1881, a synthetic androgen, and compared to untreated cells by western blot.

LAMT WT fibroblasts = test: as above; type: cell-based, mouse; conditions: for increase in PCNA levels (densitometry normalized to GAPDH): preliminary data
Experimental: as §2

LAMT E2 = test: Serum and LAMT estradiol (E2) by LC-MS^2 after letrozole treatment; type: in vivo, mouse; conditions: Arom^hum mice, letrozole 10 μg daily SC pellets starting at week 3
Experimental: FIG. 4. (A) Serum estradiol (E2) and (B) LAMT E2 were measured by liquid chromatography-tandem mass spectrometry (LC-MS^2) assay after letrozole (let) treatment (n=10/group). *p<0.05. **p<0.01. Veh, vehicle.
LAMT estrogen levels are increased in Arom^hum mice. Arom^hum mice recapitulate the primary aspects of aromatase expression in men in that most peripheral (extragonadal) tissues, such as skeletal muscle and adipose tissue, express aromatase primarily using the distal promoter 1.4 and, to a lesser extent, the proximal promoter II (FIG. 3)^32. […] Local E2 levels in LAMT, however, are strikingly higher in Arom^hum mice than in WT mice (FIG. 4B).
Increased LAMT estrogen levels are associated with LAMT fibrosis, myocyte atrophy, and inguinal hernia development; aromatase inhibitor prevents hernia formation in Arom^hum mice. […]
Experiment 1a1: Does aromatase inhibition arrest or reverse LAMT fibrosis, atrophy, and hernia in male Arom^hum mice? […] Hernia development will be monitored by visual inspection twice a week for 12 weeks after letrozole administration and will be reported as hernia incidence using Kaplan-Meier curve analysis. The length and width of the observed hernias will be measured to calculate the surface area (length×width). […] Circulating and tissue (LAMT and UAMT) E2 levels will be measured at the IIT Research Institute by Dr. Miguel Muzzio (see letter) using LC-MS^2. […]

Arom^hum mice [4] = test: Prevention of inguinal hernia, LAMT fibrosis and atrophy in Arom^hum mice (treatment started before hernia formation); type: in vivo, mouse
Text: Increased LAMT estrogen levels are associated with LAMT fibrosis, myocyte atrophy, and inguinal hernia development; aromatase inhibitor prevents hernia formation in Arom^hum mice. […] None of the WT littermates (n=32) developed hernia.
In the mouse, the scrotum is connected to the peritoneal cavity with a narrow funicular (or inguinal) canal, whose walls are composed of LAMT. Structurally normal LAMT is essential to maintain the tone of this canal and prevents herniation of bowel. LAMT is the critical site affected by E2 excess (FIGS. 2, 5, 6). As in many other tissues, stromal cells intimately interact with parenchymal cells (myocytes) in UAMT and LAMT (FIG. 6). […] Administration of the aromatase inhibitor letrozole started at 3 weeks of age for 12 weeks prevented LAMT atrophy, fibrosis and herniation in all (10 out of 10) treated Arom^hum mice (FIG. 6B).
Experiment 1a1: Does aromatase inhibition arrest or reverse LAMT fibrosis, atrophy, and hernia in male Arom^hum mice? […] The hernias will be classified as mild, early moderate, late moderate and severe if the bulging area through muscle tissue is <100 mm^2 (˜4 weeks), 100-150 mm^2 (˜6 weeks), 150-200 mm^2 (˜8 weeks), or >200 mm^2 (˜10 weeks), respectively. First, we will treat Arom^hum mice showing mild hernias with letrozole (SC 10 μg/day release pellet) or vehicle starting at 4 weeks of age for 12 weeks^63. We will assess whether muscle fibrosis, atrophy, and hernia can be arrested or reversed in mildly (<100 mm^2) affected animals. If early letrozole treatment can arrest mild muscle fibrosis, we will delay the initiation of treatment to 6, 8, or 10 weeks of age to determine whether letrozole can arrest or reverse the growth of the early moderate (6 weeks), late moderate (8 weeks) or severe hernia (10 weeks). Hernia development will be monitored by visual inspection twice a week for 12 weeks after letrozole administration and will be reported as hernia incidence using Kaplan-Meier curve analysis. The length and width of the observed hernias will be measured to calculate the surface area (length×width). After completion of the treatment, the mice will be dissected, and LAMT, UAMT (control), and serum will be collected. One hundred mg of frozen muscle tissue will be obtained to measure tissue estrogen levels. Circulating and tissue (LAMT and UAMT) E2 levels will be measured at the IIT Research Institute by Dr. Miguel Muzzio (see letter) using LC-MS^2. We will use immunoblotting and IHC to determine ERα expression in LAMT and UAMT.
This finding was published in PNAS in Oct., 2018. […] We treated Arom^hum mice with fulvestrant for 12 weeks starting at the age of 4 weeks (before hernia formation). As expected, placebo-treated Arom^hum mice developed scrotal hernias.

[5] = system: LAMT primary fibroblasts from Arom^hum mice; test: mRNA levels of estrogen-responsive and fibrotic genes in LAMT primary fibroblasts after E2 antagonist treatment; type: cell-based, mouse; conditions: MPP, pretreated 2 hours before addition of E2 (10 nM)
Experimental: FIG. 10. mRNA levels of estrogen-responsive genes [Pgr (A, E) and Greb1 (B, F)] and fibrotic genes [Spon2 (C, G), Kiss1 (D), and Eln (H)] in LAMT primary fibroblasts from Arom^hum mice after treatment with 100 nM ICI 182,780 (ICI) or […] MPP in the presence or absence of E2 (10 nM). Cells were pretreated with ICI 182,780 or MPP for 2 hours before the addition of E2. Veh, vehicle. *P<0.05, **P<0.01. GAPDH mRNA levels served as controls.
Experiment 1a2: Does the general E2 antagonist fulvestrant, which downregulates and blocks ER, or ERα-selective E2 antagonist MPP prevent, arrest or reverse LAMT muscle fibrosis, atrophy and inguinal hernias in male Arom^hum mice? […] Here, we will define whether the effects of E2 on hernia formation in LAMT is mediated via ERα in vivo. We will treat Arom^hum or WT mice with vehicle, fulvestrant (ICI 182,780), or MPP. […] Circulating and muscle tissue E2 levels will be measured using LC-MS^2. To validate the effects of each treatment, protein expression of ERα and E2/ERα target genes (Ccnd1, Pgr, and Greb1), and cell proliferation markers (Ki67 and PCNA) will be determined by IHC and immunoblotting. Fibrotic-related genes (Kiss1, Ren1, Emb, Timp1, Spon2, and Eln), the ECM marker Col1a1, and the myocyte marker Myh will be assessed using qPCR and IHC in LAMT after fulvestrant, MPP, and/or letrozole treatment. […]

[6] = R1881 0.001-100 nM, 24 hours, western blot
[7] = Arom^hum mice with small to moderate hernias, letrozole for 12 weeks

## C[C@]12CCC(=O)C[C@@H]1CC[C@@H]1[C@@H]2CC[C@]2(C)[C@@H](O)CC[C@@H]12 [DHT, dihydrotestosterone]
Arom^hum mice [1]
  hernia volume: significantly decreased

## O=C(c1ccc(OCCN2CCCCC2)cc1)c1c(-c2ccc(O)cc2)sc2cc(O)ccc12 [raloxifene]
Arom^hum mice [2]
  time required to reverse large hernias, compared to fulvestrant treatment: require a longer time to reverse large hernias as compared to fulvestrant treatment
Arom^hum mice [2]; raloxifene for 3 weeks, FIG. 20
  reversal of large scrotal hernia: reverses large scrotal hernia
Arom^hum mice [2]; Arom^hum mice, 3-week raloxifene treatment, FIGS. 17 and 20
  reversal of small to large hernias: capable to reverse small to large hernias
Arom^hum mice [2]; Arom^hum mice, raloxifene for 21 days, FIG. 17
  reversal of mild to moderate size of hernia: can also reverse mild to moderate size of hernia; also recorded: reverses the small to moderate size of scrotal hernias

## C[C@]1(O)CC[C@H]2[C@@H]3CCC4=CC(=O)CCC4=C3C=C[C@@]21C [R1881, (17b)-17-Hydroxy-17-methyl-estra-4,9,11-trien-3-one]
[3]; 0.001 nM R1881, 24 hours
  increase in PCNA levels (densitometry normalized to GAPDH): 20%
[3]; 0.01 nM R1881, 24 hours
  increase in PCNA levels (densitometry normalized to GAPDH): 30%
[3]; 10 nM R1881, 24 hours
  decrease in PCNA levels: 40%
[3]; 100 nM R1881, 24 hours
  decrease in PCNA levels: 30%
[3]; [6]
  AR levels: increased AR levels in a dose-dependent manner
LAMT WT fibroblasts; 0.001 nM R1881, 24 hours
  increase in PCNA levels (densitometry normalized to GAPDH): 80%
LAMT WT fibroblasts; 0.01 nM R1881, 24 hours
  increase in PCNA levels (densitometry normalized to GAPDH): 60%
LAMT WT fibroblasts; 100 nM R1881, 24 hours
  decrease in PCNA levels: 25%
LAMT WT fibroblasts; [6]
  AR levels: increased AR levels in a dose-dependent manner

## N#Cc1ccc(C(c2ccc(C#N)cc2)n2cncn2)cc1 [letrozole]
Arom^hum mice [2]
  time required to reverse large hernias, compared to fulvestrant treatment: require a longer time to reverse large hernias as compared to fulvestrant treatment
Arom^hum mice [2]; letrozole for 12 weeks, FIG. 19
  reversal of large scrotal hernia: reverses large scrotal hernia
Arom^hum mice [2]; [7]
  muscle fibrosis: reduction in muscle fibrosis
  myocyte size: restoration of myocyte size
Arom^hum mice [2]; Arom^hum mice, letrozole for 12 weeks, FIG. 16
  reversal of mild to moderate size of hernia (150-200 mm^2): can reverse mild to moderate size of hernia
LAMT E2
  LAMT E2 levels: restored LAMT E2 levels similar to WT LAMT levels
Arom^hum mice [4]; Arom^hum male mice, letrozole 10 μg daily via subcutaneous slow-release pellets starting at week 3, 12 weeks
  hernia development: entirely prevented LAMT fibrosis or inguinal hernia development in all animals; also recorded: prevented hernia development in all Arom^hum mice; also recorded: prevents abdominal bulging, LAMT stromal fibrosis, myocyte atrophy, and inguinal hernias in three lines of Arom^hum mice; also recorded: completely prevented the formation of inguinal hernias
Arom^hum mice [4]; Arom^hum mice
  ECM content in LAMT: significantly decreased
Arom^hum mice [4]; Arom^hum mice, 4-week-old mice treated for 12 weeks, FIGS. 15C and D
  development of LAMT fibrosis (fibrotic area, Masson's trichrome): completely prevented with letrozole treatment
Arom^hum mice [4]; Arom^hum mice, FIG. 7E
  stromal cell proliferative activity (Ki67-positive stromal cells) in LAMT: significantly decreased stromal cell proliferative activity
Arom^hum mice [4]; Arom^hum mice, letrozole, FIG. 6B
  LAMT atrophy and fibrosis (Masson's trichrome staining): prevented LAMT atrophy and fibrosis
Arom^hum mice [4]; Arom^hum mice, started at 3 weeks of age for 12 weeks
  treated mice in which LAMT atrophy, fibrosis and herniation were prevented: 10 out of 10

## Cc1c(-c2ccc(O)cc2)nn(-c2ccc(O)cc2)c1-c1ccc(OCCN2CCCCC2)cc1 [MPP, Methyl-Piperidino-Pyrazole]
[5]
  E2-induced expression of estrogen-responsive genes (Pgr and Greb1) and fibrotic genes (Spon2, Kiss1, Eln): significantly decreased E2-induced expression of estrogen-responsive genes (Pgr and Greb1) and fibrotic genes (Spon2, Kiss1 and, Eln)

— patent US20240238310A1, “MODULATION OF SEX STEROID HORMONE PRODUCTION AND ACTIVITY FOR TREATING AND PREVENTING HERNIAS” (Northwestern University, priority 2020, published 2024)
